Converted amounts (≈) assume the structure as drawn.
How the values were obtained:
acid ceramidase (hACR) = molecular target: T1, acid ceramidase (hACR) (Homo sapiens, UniProt Q13510); assay: Acid ceramidase inhibition, biochemical fluorescent assay with cell lysates overexpressing acid ceramidase, substrate Rbm14-12; conditions: cell lysates overexpressing acid ceramidase; 1 hr preincubation at RT; pH 4.5; substrate Rbm14-12 6.3 μM; read-out: hACR IC50
T1 construct: expressed in transfected cells; cell lysate used
T1 sequence (Q13510 143-395 limits assumed): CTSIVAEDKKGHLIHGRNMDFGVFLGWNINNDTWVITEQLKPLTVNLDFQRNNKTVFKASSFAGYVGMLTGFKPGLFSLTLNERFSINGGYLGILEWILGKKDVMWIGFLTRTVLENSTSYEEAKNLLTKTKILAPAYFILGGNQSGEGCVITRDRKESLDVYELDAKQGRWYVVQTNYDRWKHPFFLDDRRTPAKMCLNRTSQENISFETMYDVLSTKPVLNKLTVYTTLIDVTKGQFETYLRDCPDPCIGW
T1 sequence (Q13510 22-142 limits assumed): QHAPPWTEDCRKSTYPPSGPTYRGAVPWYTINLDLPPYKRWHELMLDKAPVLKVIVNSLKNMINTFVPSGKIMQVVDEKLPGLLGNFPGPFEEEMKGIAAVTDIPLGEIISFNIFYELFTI
How it was run: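 Enzyme source was lysate (10 µg protein) from cells overexpressing acid ceramidase, preincubated 1 hr at RT with compound dose series in 25 mM NaAc, 100 mM NaCl, pH 4.5. Rbm14-12 (6.3 μM final) reacted 1 hr at RT; stop buffer (methanol, NaIO4, glycine, pH 10.6) 1 hr, fluorescence ex360/em446; IC50 from four-parameter fit.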

[1] = Compound solubility in water; type: physicochemical

Row | IC50 (acid ceramidase (hACR)) [µM] | solubility [1] [µM] | Structure (SMILES)
1 | 0.2 to 1 | 36.4 (≈ 14.8 µg/mL) | CN1CCN(c2ccc3c(c2)CCC(C)(C)N3C(=O)NCCc2ccccc2)CC1 [Example 30, 2,2-Dimethyl-6-(4-methylpiperazin-1-yl)-N-phenethyl-3,4-dihydroquinoline-1(2H)-carboxamide]
2 | > 1 | 23.6 (≈ 6.5 µg/mL) | CN1CCN(C(=O)NCCc2ccccc2)C(C)(C)C1 [Example 34, 2,2,4-Trimethyl-N-phenethylpiperazine-1-carboxamide]
3 | 0.2 to 1 | 6.02 (≈ 1.97 µg/mL) | CC1(C)CCc2cccc(F)c2N1C(=O)NCCc1ccccc1 [Example 35, 8-Fluoro-2,2-dimethyl-N-phenethyl-3,4-dihydroquinoline-1(2H)-carboxamide]
4 | > 1 | 19.1 (≈ 4.34 µg/mL) | CCCCNC(=O)N1CCN(C)CC1(C)C [Example 37, N-Butyl-2,2,4-trimethylpiperazine-1-carboxamide]
5 | > 1 | 35.8 (≈ 11.1 µg/mL) | CCCCNC(=O)N1CCN(C2CCCN(C)C2)CC1(C)C (stereo not drawn) [Example 38]
6 | > 1 | 34.8 (≈ 11.3 µg/mL) | CCCCNC(=O)N1CCC(OC2CCN(C)CC2)CC1(C)C (stereo not drawn) [Example 39, N-Butyl-2,2-dimethyl-4-((1-methylpiperidin-4-yl)oxy)piperidine-1-carboxamide]
7 | < 0.2 | 23.4 (≈ 6.42 µg/mL) | CC1(C)CCCCN1C(=O)NCCCc1ccccc1 [Example 40, 2,2-Dimethyl-N-(3-phenylpropyl)piperidine-1-carboxamide]
8 | 0.2 to 1 | 3.7 (≈ 1.18 µg/mL) | CC(C)CCNC(=O)N1CCC(Oc2ccccc2)CC1(C)C (stereo not drawn) [Example 41, N-iso-Pentyl-2,2-dimethyl-4-phenoxypiperidine-1-carboxamide]
9 | > 1 | 7 (≈ 2.12 µg/mL) | CC(C)CCNC(=O)N1CCN(c2ccccc2)CC1(C)C [Example 42, N-iso-Pentyl-2,2-dimethyl-4-phenylpiperazine-1-carboxamide]
10 | 0.2 to 1 | 1.7 (≈ 0.567 µg/mL) | CC1(C)CCc2c(C#N)cccc2N1C(=O)NCCc1ccccc1 [Example 47, 5-cyano-2,2-dimethyl-N-phenethyl-3,4-dihydroquinoline-1(2H)-carboxamide]
11 | 0.2 to 1 | 35.3 (≈ 13.3 µg/mL) | CN1CC(c2cccc3c2CCC(C)(C)N3C(=O)NCCc2ccccc2)C1 [Example 49]
12 | < 0.2 | 32.2 (≈ 12.2 µg/mL) | CN1CC(c2ccc3c(c2)N(C(=O)NCCc2ccccc2)C(C)(C)CC3)C1 [Example 50]
13 | 0.2 to 1 | 0.9 (≈ 0.328 µg/mL) | CC1(C)CCc2c(C3COC3)cccc2N1C(=O)NCCc1ccccc1 [Example 51]
14 | 0.2 to 1 | 5 (≈ 1.82 µg/mL) | CC1(C)CCc2ccc(C3COC3)cc2N1C(=O)NCCc1ccccc1 [Example 52]
15 | > 1 | 25.6 (≈ 6.31 µg/mL) | CC1(C)CCCN1C(=O)NCCc1ccccc1 [Example 54, 2,2-Dimethyl-N-phenethylpyrrolidine-1-carboxamide]
16 | < 0.2 | 25.7 (≈ 7.98 µg/mL) | CC1(C)CC(F)(F)CCN1C(=O)NCCCc1ccccc1 [Example 61, 4,4-Difluoro-2,2-dimethyl-N-(3-phenylpropyl)piperidine-1-carboxamide]
17 | > 1 | 15 (≈ 4.36 µg/mL) | CC1(C)CC(F)=CCN1C(=O)NCCCc1ccccc1 [Example 62, 4-fluoro-2,2-dimethyl-N-(3-phenylpropyl)-3,6-dihydropyridine-1(2H)-carboxamide]
18 | < 0.2 | 3.1 (≈ 0.931 µg/mL) | CN(C(=O)NCCCc1ccccc1)C12CCC(CC1)CC2 [Example 63, 1-(Bicyclo[2.2.2]octan-1-yl)-1-methyl-3-(3-phenylpropyl)urea]
19 | 0.2 to 1 | 40.2 (≈ 14.6 µg/mL) | CN1CC(c2ccc3c(c2)N(C(=O)NCc2ccccc2)C(C)(C)CC3)C1 [Example 65, N-benzyl-2,2-dimethyl-7-(1-methylazetidin-3-yl)-3,4-dihydroquinoline-1(2H)-carboxamide]
20 | 0.2 to 1 | 38.5 (≈ 14 µg/mL) | CN1CC(c2cccc3c2CCC(C)(C)N3C(=O)NCc2ccccc2)C1 [Example 66, N-Benzyl-2,2-dimethyl-5-(1-methylazetidin-3-yl)-3,4-dihydroquinoline-1(2H)-carboxamide]
21 | > 1 | 8.3 (≈ 2.44 µg/mL) | CC1(C)Cc2ccccc2N1C(=O)NCCc1ccccc1 [Example 67, 2,2-Dimethyl-N-phenethylindoline-1-carboxamide]
22 | > 1 | 35.5 (≈ 15.4 µg/mL) | CN1CC(N2CC(c3ccc4c(c3)N(C(=O)NCCc3ccccc3)C(C)(C)CC4)C2)C1 [Example 69, 2,2-Dimethyl-7-(1′-methyl-[1,3′-biazetidin]-3-yl)-N-phenethyl-3,4-dihydroquinoline-1(2H)-carboxamide]
23 | 0.2 to 1 | 15.6 (≈ 6.33 µg/mL) | CC(=O)N1CC(c2ccc3c(c2)N(C(=O)NCCc2ccccc2)C(C)(C)CC3)C1 [Example 70, 7-(1-Acetylazetidin-3-yl)-2,2-dimethyl-N-phenethyl-3,4-dihydroquinoline-1(2H)-carboxamide]
24 | > 1 | 4.3 (≈ 1.39 µg/mL) | CC1(C)CC(F)=CCN1C(=O)NCCCC1(C(F)(F)F)CC1 [Example 73, 4-fluoro-2,2-Dimethyl-N-(3-(1-(trifluoromethyl)cyclopropyl)propyl)-3,6-dihydropyridine-1(2H)-carboxamide]

The next lines start with the compound.

Row | Structure (SMILES) | IC50 (acid ceramidase (hACR)) [µM] | solubility [1] [µM]
25 | CCCCNC(=O)N1CCC2(CCCCO2)CC1(C)C (stereo not drawn) [Example 31, N-Butyl-8,8-dimethyl-1-oxa-9-azaspiro[5.5]undecane-9-carboxamide] | > 1 | 32 (≈ 9.04 µg/mL)
26 | CCCCNC(=O)N1c2cccc(N3CCN(C)CC3)c2CCC1(C)C [Example 33, N-Butyl-2,2-dimethyl-5-(4-methylpiperazin-1-yl)-3,4-dihydroquinoline-1(2H)-carboxamide] | 0.2 to 1 | 22.7 (≈ 8.14 µg/mL)
27 | CC1(C)CC2(CCCCO2)CCN1C(=O)NCCCCC1CC1 (stereo not drawn) [Example 43, N-(4-Cyclopropylbutyl)-8,8-dimethyl-1-oxa-9-azaspiro[5.5]undecane-9-carboxamide] | 0.2 to 1 | 16.5 (≈ 5.32 µg/mL)
28 | C=CCCCCNC(=O)N1CCC2(CCCCO2)CC1(C)C (stereo not drawn) [Example 44, N-(Hex-5-en-1-yl)-8,8-dimethyl-1-oxa-9-azaspiro[5.5]undecane-9-carboxamide] | 0.2 to 1 | 20.8 (≈ 6.42 µg/mL)
29 | O=C(NCCc1ccccc1)N1CCCCC12CCCC2 [Example 45, N-Phenethyl-6-azaspiro[4.5]decane-6-carboxamide] | 0.2 to 1 | 6 (≈ 1.72 µg/mL)
30 | O=C(NCCc1ccccc1)N1CCCCC12CCC2 [Example 46, N-Phenethyl-5-azaspiro 3.5 nonane-5-carboxamide] | > 1 | 17.5 (≈ 4.77 µg/mL)
31 | CC1(C)COCCN1C(=O)NCCc1ccccc1 [Example 53, 3,3-Dimethyl-N-phenethylmorpholine-4-carboxamide] | > 1 | 25.6 (≈ 6.72 µg/mL)
32 | CC1(C)CC(c2ccccc2)CCN1C(=O)NCCc1ccccc1 (stereo not drawn) [Example 55, 2,2-Dimethyl-N-phenethyl-4-phenylpipridine-1-carboxamide] | < 0.2 | 0.4 (≈ 0.135 µg/mL)
33 | O=C(NCCCc1ccccc1)N1CCCCC12CCCC2 [Example 56, N-(3-Phenylpropyl)-6-azaspiro[4.5]decane-6-carboxamide] | < 0.2 | 4.9 (≈ 1.47 µg/mL)
34 | O=C(NCCCc1ccccc1)N1CCCC12CCCC2 [Example 57, N-(3-Phenylpropyl)-1-azaspiro[4.4]nonane-1-carboxamide] | > 1 | 19.4 (≈ 5.56 µg/mL)
35 | O=C(NCCCc1ccc(F)cc1)N1CCCCC12CCCC2 [Example 58, N-(3-(4-Fluorophenyl)propyl)-6-azaspiro[4.5]decane-6-carboxamide] | < 0.2 | 3 (≈ 0.955 µg/mL)
36 | O=C(NCCCc1ccc(F)cc1F)N1CCCCC12CCCC2 [Example 59, N-(3-(2,4-difluorophenyl)propyl)-6-azaspiro[4.5]decane-6-carboxamide] | < 0.2 | 1.1 (≈ 0.37 µg/mL)
37 | O=C(NCCCc1ccccc1)N1CCOCC12CCCC2 [Example 60, N-(3-Phenylpropyl)-9-oxa-6-azaspiro[4.5]decane-6-carboxamide] | > 1 | 25.2 (≈ 7.62 µg/mL)
38 | CN(C(=O)NCCCc1ccccc1)C1CN2CCC1CC2 (stereo not drawn) [Example 64, 1-Methyl-3-(3-phenylpropyl)-1-(quinuclidin-3-yl)urea] | > 1 | 35.4 (≈ 10.7 µg/mL)
39 | COc1cccc2c1N(C(=O)NCCc1ccccc1)C(C)(C)CC2 [Example 68, 8-Methoxy-2,2-dimethyl-N-phenethyl-3,4-dihydroquinoline-1(2H)-carboxamide] | < 0.2 | 8.2 (≈ 2.78 µg/mL)
40 | CN(C(=O)NCCCC1(C(F)(F)F)CC1)C12CCC(CC1)CC2 [Example 71, 1-(Bicyclo[2.2.2]octan-1-yl)-1-methyl-3-(3-(1-(trifluoromethyl)cyclopropyl)propyl)urea] | 0.2 to 1 | 5.9 (≈ 1.96 µg/mL)
41 | CC1(C)CC(F)(F)CCN1C(=O)NCCCC1(C(F)(F)F)CC1 [Example 72, 4,4-Difluoro-2,2-dimethyl-N-(3-(1-(trifluoromethyl)cyclopropyl)propyl)piperidine-1-carboxamide] | 0.2 to 1 | 21.4 (≈ 7.33 µg/mL)
42 | CC1(C)CC(c2ccccc2)CCN1C(=O)NCCCCc1ccccc1 (stereo not drawn) [Example 74, 2,2-Dimethyl-4-phenyl-N-(4-phenylbutyl)piperidine-1-carboxamide] | < 0.2 | 0.2 (≈ 0.0729 µg/mL)

From patent publication US20220380314A1, “SUBSTITUTED, SATURATED AND UNSATURATED N-HETEROCYCLIC CARBOXAMIDES AND RELATED COMPOUNDS FOR THEIR USE IN THE TREATMENT OF MEDICAL DISORDERS” (Bial - R&D Investments, S.A., priority 2019, published 2022)
